According to patent US5258377A, “2-spirocyclopropyl 4-acylcephems” (Taiho Pharmaceutical Co., Ltd., priority 1991, dated 1993):

These compounds were tested against T1, human leukocyte elastase (HLE) (Homo sapiens, UniProt P08246) (assay: in vitro anti-elastase activity against human leukocyte elastase (HLE)).
T1 sequence (P08246 30-247 limits assumed): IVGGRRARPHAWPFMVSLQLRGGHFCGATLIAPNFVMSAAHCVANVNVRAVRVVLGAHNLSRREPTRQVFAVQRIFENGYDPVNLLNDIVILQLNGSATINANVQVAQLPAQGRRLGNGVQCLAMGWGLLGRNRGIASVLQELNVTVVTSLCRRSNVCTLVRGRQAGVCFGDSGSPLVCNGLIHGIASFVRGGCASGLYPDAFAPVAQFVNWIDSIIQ
Type: biochemical

IC50 [nM] | Compound
7.4 | CCCCC(=O)C1=C(C)C2(CC2(c2ccccc2)c2ccccc2)S(=O)(=O)[C@@H]2[C@@H](OC)C(=O)N12 (stereo partly drawn) [Compd 3, 7α-Methoxy-2-spiro(2',2'-diphenyl)cyclopropyl-3-methyl-3-cephem-4-butylcarbonyl 1,1-dioxide]
10.3 | CCC(=O)C1=C(C)C2(CC2(c2ccccc2)c2ccccc2)S(=O)(=O)[C@@H]2[C@@H](OC)C(=O)N12 (stereo partly drawn) [Compd 2, 7α-Methoxy-2-spiro (2',2'-diphenyl)cyclopropyl-3-methyl-3-cephem-4-ethylcarbonyl 1,1-dioxide]
12 | CO[C@H]1C(=O)N2C(C(=O)C(C)(C)C)=C(C)C3(CC3(c3ccccc3)c3ccccc3)S(=O)(=O)[C@H]12 (stereo partly drawn) [Compd 6, 7α-Methoxy-2-spiro(2',2'-diphenyl)cyclopropyl-3-methyl-3-cephem-4-t-butylcarbonyl 1,1-dioxide]
6.3 | CC1=C(C(=O)C(C)(C)C)N2C(=O)[C@H](Cl)[C@H]2S(=O)(=O)C12CC2(c1ccccc1)c1ccccc1 (stereo partly drawn) [Compd 5, 7α-Chloro-2-spiro(2',2'-diphenyl)cyclopropyl-3-methyl-3-cephem-4-t-butylcarbonyl 1,1-dioxide]
8.9 | CC1=C(C(=O)c2ccccc2)N2C(=O)[C@H](Cl)[C@H]2S(=O)(=O)C12CC2(c1ccccc1)c1ccccc1 (stereo partly drawn) [Compd 4, 7α-chloro-2-spiro (2',2'-diphenyl)cyclopropyl-3-methyl-3-cephem-4-phenylcarbonyl 1,1-dioxide]
